Results on 10 molecules are retold here after paper PMC5927461, “Activation of host transient receptor potential (TRP) channels by praziquantel stereoisomers” (PLoS Neglected Tropical Diseases, 2018).

The subject of test [1] is mouse mesenteric arteries. Nature of the test: Wire myography, mesenteric artery strips precontracted with high K+ (KPSS). As to conditions: for relaxation of KPSS-contracted vessel strips by TRPM8 agonists: wild type, menthol 300μM, icilin 50 μM, WS-12 50μM.
Test [2] addresses T1, hTRPA1 (Homo sapiens, UniProt O75762). The test can be described thus: TRP channel panel primary screen (FLIPR Calcium 5, stable HEK line). Format: cell-based. Conditions: 0.3-300μM; effects over the micromolar range. On the procedure: (§1) ±PZQ, (R)-PZQ and (S)-PZQ were screened against a panel of 17 human TRP channels (SB Drug Discovery, Glasgow). For all hTRPs, except for TRPM5, individual channel constructs were stably expressed in HEK cell lines. TRMP5 was expressed in a stable CHO cell line. In preparation for the assays, cells were trypsinized, counted and seeded (50,000 cells/well) in black, clear-bottomed 96 well plates and incubated overnight. The following day, cells were loaded with a fluorescent indicator (FLIPR Calcium 5 Assay kit for TRPA1, TRPV1, TRPV2, TRPV3, TRPV4, TRPV5, TRPC1, TRPM2, TRPM3 and TRPM8, or a membrane potential dye (FLIPR Membrane Potential Red Assay Kit for TRPC3, TRPC4, TRPC5, TRPC6, TRPC7, TRPM4 and TRPM5) prepared according to the manufacturer’s instructions in HEPES buffered Hank’s balanced salt solution (HBSS). Dye solution (10μl) was added to appropriate wells and incubated at 37°C for 1 hour. All assays were performed at room temperature. Compounds were tested at 0.3, 1, 3, 10, 30, 100μM and 300μM in triplicate in both agonist and antagonist mode to determine EC50 and IC50 values, which were compared with reference compounds. Compounds were screened at a final DMSO concentration of 0.5%. Plates were screened using a Flexstation (Molecular Devices, FX01138), monitoring fluorescence values every ~1.52 seconds. For ‘agonist mode’ testing, 10μl of the appropriate test compound, or standard agonist, was added after 20 seconds and fluorescence monitored for 2 minutes at λex = 485nm, λem = 525nm for Ca^2+ imaging and λex = 530nm, λem = 565nm for membrane potential measurements. For ‘antagonist mode’ testing, test compounds and standard inhibitors were added to appropriate wells and incubated for 10 minutes at room temperature prior to addition of standard agonist compound.

Test [3] addresses T2, hTRPC3 (Homo sapiens, UniProt Q13507).
T2 sequence (Q13507 1-921): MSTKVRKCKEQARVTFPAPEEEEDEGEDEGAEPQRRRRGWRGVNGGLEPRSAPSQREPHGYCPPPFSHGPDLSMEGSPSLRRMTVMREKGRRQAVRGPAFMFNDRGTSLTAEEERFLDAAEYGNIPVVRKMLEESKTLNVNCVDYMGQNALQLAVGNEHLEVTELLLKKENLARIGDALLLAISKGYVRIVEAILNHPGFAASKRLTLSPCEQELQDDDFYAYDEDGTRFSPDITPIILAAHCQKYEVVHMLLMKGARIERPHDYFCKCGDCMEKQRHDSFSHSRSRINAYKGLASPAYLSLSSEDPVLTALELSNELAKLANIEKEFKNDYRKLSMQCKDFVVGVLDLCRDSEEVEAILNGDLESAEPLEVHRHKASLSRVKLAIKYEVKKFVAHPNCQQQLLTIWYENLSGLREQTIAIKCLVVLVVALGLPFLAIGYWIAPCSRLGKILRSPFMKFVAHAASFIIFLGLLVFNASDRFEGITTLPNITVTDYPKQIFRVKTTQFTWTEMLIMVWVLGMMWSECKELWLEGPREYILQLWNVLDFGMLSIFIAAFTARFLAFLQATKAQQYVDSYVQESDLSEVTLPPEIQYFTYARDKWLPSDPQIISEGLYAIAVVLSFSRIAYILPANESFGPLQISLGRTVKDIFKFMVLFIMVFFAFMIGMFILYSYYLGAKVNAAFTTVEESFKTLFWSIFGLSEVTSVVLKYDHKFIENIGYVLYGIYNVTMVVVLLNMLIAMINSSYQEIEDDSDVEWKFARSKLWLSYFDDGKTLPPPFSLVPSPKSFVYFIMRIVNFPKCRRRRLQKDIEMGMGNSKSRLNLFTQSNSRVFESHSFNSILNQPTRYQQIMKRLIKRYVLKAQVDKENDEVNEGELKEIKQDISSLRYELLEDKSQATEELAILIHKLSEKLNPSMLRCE
Nature of the test: TRP channel panel primary screen (membrane potential dye, stable HEK line). It counts as cell-based. As to conditions: 0.3-300μM; effects over the micromolar range. As for the experimental part: as §1

Test [4] addresses T3, hTRPC7 (Homo sapiens, UniProt Q9HCX4).
T3 sequence (Q9HCX4 1-862): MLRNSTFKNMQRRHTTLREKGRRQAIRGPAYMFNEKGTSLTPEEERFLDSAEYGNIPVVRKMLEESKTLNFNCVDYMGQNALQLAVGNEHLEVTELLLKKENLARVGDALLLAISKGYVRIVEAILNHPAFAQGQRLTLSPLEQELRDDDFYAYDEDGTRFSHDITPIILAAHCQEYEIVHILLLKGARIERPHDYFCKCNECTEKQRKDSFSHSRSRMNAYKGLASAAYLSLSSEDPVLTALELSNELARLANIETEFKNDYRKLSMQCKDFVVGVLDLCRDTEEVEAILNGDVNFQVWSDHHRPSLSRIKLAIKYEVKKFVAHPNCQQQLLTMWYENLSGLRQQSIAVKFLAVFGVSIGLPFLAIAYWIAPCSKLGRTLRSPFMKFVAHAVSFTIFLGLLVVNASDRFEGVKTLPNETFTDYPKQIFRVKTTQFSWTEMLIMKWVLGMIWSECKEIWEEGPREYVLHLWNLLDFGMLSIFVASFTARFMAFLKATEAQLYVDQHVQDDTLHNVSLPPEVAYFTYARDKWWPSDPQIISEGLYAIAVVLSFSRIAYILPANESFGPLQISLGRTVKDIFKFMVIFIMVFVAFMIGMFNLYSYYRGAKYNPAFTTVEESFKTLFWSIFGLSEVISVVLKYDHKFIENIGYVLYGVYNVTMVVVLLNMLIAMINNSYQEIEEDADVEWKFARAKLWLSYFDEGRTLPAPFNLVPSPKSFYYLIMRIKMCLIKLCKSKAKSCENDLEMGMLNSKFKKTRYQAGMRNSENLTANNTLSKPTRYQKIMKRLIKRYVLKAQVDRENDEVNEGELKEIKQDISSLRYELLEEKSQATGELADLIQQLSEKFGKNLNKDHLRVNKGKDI
Described as above. As to conditions: 0.3-300μM; effects over the micromolar range. Format: cell-based. As for the experimental part:
as §1

Test [5] deals with T1, hTRPA1. Nature of the test: Single cell confocal Ca2+ imaging (fluo-4) in transfected HEK293 cells. It counts as cell-based. On the set-up: host or cells: HEK293 (ATCC CRL-1573.3), transient. As to conditions: for Ca2+ response in hTRPA1 expressing cells: 100μM. From the text: (§2) Human TRPM8 cDNA was a VersaClone from R&D Systems (RDC0188). Plasmids encoding human TRPA1 and human TRPV1 cDNA were purchased from DNASU plasmid repository (HsCD00080227 and HsCD00081472, respectively). The TRP channel coding sequences were subcloned into pCS2+ to introduce a COOH-term myc tag using the InFusion HD method (Clontech), HindIII/XhoI restriction enzymes (NEB) and the following primers: TRPM8 F–TGGGGACGTCGGAGC-aagctt-[…]; TRPM8 R–AAATCGATGGGATGC-ctcgag-[…]; TRPA1 F-GGACGTCGGAGC-aagctt- atgaagcgcagcctgagg; TRPA1 R-TCGATGGGATGC-ctcgag-[…]; TRPV1 F–GGACGTCGGAGC-aagctt-[…]; TRPV1 R-TCGATGGGATGC-ctcgag-cttctccccggaagcgg (where upper case specifies vector-specific sequences, italics indicate restriction sites, and lower case indicates TRP channel specific sequences). Primers are listed in a 5’ to 3’ orientation.
(§3) HEK293 cells (ATCC CRL-1573.3) were cultured in DMEM supplemented with 10% fetal bovine serum (FBS), penicillin (100 units/ml), streptomycin (100 μg/ml), and L-glutamine (290 μg/ml). Cells were transiently transfected (Lipofectamine LTX, Thermo Fisher) at a density of 2x10^6 cells per T-25 cell-culture flask with TRP channel cDNA. For Ca^2+ imaging assays, HEK293 cells were seeded onto 8-chambered coverglass slides (Thermo Fisher, 115411PK), at a density of 1x10^4 cells one day prior to imaging. Cells were washed twice with HBSS, and incubated with fluo-4-AM (4μM), pluronic F127 (0.4%) and probenecid (2.5mM) for 25 minutes at room temperature. Cells were then washed twice with HBSS, and left at room temperature (30 minutes) for de-esterification. Dishes were mounted on an Olympus IX81 microscope and fluorescence changes (λex = 488nM, λem = 513±15nm bandpass filter) monitored using a Yogokawa spinning disk confocal (CSU-X-M1N) and an Andor iXon Ultra 888 EMCCD camera.

Test [6] concerns the target hTRPM8 (Homo sapiens, UniProt Q7Z2W7). The test is described as above. Format: cell-based. Also noted: host or cells: HEK293 (ATCC CRL-1573.3), transient. As to conditions: for cytoplasmic Ca2+ signal in TRPM8 expressing cells: menthol 300μM, ±PZQ 100μM, (R)-PZQ or (S)-PZQ 50μM.
Description: as §2, §3

Test [7] deals with untransfected HEK293 cells. The test can be described thus: Confocal Ca2+ imaging in untransfected HEK293 cells (control). It counts as cell-based, human. As to conditions: menthol 300μM, ±PZQ 100μM, ACh 100μM, capsaicin 1μM, AITC 100μM. As for the experimental part:
as §3

Test [8] concerns mesenteric vessels isolated from a TRPM8 knockout mouse. The test can be described thus: Wire myography, KPSS-contracted mesenteric vessels from TRPM8 knockout mice. As to conditions: TRPM8 KO; menthol 300μM, icilin 50μM, WS-12 50μM.
Test [9] addresses TRPV1 (Homo sapiens, UniProt Q8NER1). The test can be described thus: Single cell confocal Ca2+ imaging (fluo-4) in transfected HEK293 cells. Format: cell-based. On the set-up: host or cells: HEK293 (ATCC CRL-1573.3), transient.
Description: as §2, §3

T1 sequence (O75762 whole entry): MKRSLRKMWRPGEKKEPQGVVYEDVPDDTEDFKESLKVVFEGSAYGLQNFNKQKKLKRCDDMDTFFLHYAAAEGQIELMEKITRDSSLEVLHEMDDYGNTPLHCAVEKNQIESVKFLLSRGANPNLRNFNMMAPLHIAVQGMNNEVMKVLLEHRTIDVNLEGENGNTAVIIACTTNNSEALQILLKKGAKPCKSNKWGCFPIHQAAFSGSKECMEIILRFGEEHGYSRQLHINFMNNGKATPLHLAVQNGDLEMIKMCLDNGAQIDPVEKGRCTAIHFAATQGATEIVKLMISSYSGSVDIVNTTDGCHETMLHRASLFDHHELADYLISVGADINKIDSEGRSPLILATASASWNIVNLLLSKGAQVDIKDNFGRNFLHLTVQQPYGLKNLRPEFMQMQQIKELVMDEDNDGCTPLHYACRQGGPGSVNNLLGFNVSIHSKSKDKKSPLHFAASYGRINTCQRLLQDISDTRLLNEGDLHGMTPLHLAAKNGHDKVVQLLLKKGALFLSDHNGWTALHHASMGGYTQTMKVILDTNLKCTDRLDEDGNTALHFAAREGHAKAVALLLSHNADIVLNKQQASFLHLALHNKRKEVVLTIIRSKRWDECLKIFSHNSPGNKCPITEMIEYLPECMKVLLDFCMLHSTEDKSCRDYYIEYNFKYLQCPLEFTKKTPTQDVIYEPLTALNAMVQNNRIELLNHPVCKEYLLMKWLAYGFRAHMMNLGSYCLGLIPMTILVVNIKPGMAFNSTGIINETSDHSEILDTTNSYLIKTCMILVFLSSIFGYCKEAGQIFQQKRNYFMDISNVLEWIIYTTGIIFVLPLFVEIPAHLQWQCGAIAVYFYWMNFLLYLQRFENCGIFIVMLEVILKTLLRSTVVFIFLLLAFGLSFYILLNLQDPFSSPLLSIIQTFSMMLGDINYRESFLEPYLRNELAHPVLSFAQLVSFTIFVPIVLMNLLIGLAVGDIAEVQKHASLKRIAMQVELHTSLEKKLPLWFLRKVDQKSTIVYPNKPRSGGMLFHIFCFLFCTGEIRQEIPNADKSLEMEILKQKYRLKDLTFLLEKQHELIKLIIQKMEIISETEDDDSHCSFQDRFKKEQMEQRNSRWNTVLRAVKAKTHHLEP
hTRPM8, sequence (Q7Z2W7 whole entry): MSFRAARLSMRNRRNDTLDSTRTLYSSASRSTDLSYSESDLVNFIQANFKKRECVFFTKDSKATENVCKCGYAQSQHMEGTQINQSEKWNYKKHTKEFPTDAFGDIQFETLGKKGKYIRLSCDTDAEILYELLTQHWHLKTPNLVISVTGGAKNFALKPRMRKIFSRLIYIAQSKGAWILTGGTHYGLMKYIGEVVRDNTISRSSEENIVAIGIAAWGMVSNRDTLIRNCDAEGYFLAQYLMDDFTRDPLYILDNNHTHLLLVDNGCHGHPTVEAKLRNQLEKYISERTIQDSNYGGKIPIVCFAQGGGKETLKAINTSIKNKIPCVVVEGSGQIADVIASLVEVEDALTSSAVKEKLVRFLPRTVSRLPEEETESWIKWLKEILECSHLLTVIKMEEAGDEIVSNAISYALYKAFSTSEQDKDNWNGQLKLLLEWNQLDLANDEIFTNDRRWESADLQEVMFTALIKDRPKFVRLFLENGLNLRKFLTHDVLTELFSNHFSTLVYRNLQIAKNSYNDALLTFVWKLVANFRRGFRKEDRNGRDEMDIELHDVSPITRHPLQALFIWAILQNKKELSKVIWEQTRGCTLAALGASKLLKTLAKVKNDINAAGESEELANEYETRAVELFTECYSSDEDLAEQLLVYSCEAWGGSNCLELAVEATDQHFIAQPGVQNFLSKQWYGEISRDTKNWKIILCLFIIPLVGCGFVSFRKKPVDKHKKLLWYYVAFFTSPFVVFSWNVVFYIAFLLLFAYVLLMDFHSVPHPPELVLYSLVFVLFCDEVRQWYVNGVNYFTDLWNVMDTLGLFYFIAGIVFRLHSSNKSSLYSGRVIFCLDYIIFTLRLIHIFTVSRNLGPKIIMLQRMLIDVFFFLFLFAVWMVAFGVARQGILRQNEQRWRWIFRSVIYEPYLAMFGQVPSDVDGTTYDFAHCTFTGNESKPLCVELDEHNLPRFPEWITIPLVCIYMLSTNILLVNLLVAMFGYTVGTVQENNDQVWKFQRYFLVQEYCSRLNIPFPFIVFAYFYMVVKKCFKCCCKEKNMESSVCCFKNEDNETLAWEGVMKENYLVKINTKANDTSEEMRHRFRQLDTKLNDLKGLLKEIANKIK
TRPV1, sequence (Q8NER1 whole entry): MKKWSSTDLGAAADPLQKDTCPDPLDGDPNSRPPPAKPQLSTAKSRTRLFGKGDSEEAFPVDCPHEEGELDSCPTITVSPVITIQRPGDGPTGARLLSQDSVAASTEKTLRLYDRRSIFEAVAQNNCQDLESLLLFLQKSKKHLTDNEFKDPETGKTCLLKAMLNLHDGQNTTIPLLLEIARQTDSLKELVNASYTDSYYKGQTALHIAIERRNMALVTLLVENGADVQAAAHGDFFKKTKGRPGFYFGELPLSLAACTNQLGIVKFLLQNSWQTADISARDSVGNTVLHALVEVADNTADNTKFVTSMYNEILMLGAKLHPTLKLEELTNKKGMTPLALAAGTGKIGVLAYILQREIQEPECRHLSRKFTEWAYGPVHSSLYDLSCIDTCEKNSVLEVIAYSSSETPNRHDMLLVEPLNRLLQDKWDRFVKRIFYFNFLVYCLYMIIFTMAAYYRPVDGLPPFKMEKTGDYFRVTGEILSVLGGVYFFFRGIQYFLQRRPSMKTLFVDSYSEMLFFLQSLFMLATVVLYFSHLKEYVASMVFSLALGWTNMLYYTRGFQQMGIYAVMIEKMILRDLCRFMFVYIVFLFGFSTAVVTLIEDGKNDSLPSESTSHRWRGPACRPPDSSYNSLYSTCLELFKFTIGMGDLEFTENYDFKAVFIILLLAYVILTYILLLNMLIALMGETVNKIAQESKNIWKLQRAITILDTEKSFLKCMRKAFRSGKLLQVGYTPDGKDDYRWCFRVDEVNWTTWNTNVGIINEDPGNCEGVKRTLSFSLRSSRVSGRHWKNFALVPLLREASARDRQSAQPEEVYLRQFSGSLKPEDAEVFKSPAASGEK

On to `O=C(C1CCCCC1)N1CC(=O)N2CCc3ccccc3[C@@H]2C1` [(R)-PZQ], for which, in test [1] (50μM, bath application during KPSS-evoked contraction), the “change in tension of KPSS-precontracted vessels” value was “initial, small contraction”. Moreover, the “activity at hTRPA1 in primary screen” value in [2] was “activated”. Also, the “activity at hTRPC3 in primary screen” value in test [3] was “activated”. The “activity at hTRPC7 in primary screen” value in test [4] was “activated”. Further, the “Ca2+ response in hTRPA1 expressing cells” value in [5] is reported as “activation of hTRPA1”. The “cytoplasmic Ca2+ signal in TRPM8 expressing cells” value in test [6] is recorded as “without effect”.

Turning to `CC(=O)OCC[N+](C)(C)C` [ACh, acetylcholine], the “Ca2+ response in untransfected HEK293 cells” value in test [7] was “caused Ca^2+ transients”.

Consider `C=CCN=C=S` [AITC, allyl isothiocyanate], for which the “Ca2+ response in untransfected HEK293 cells” value in test [7] is “without effect”. Moreover, the “Ca2+ response in hTRPA1 expressing cells” value in test [5] is “elevation of cytoplasmic Ca^2+”.

With `Cn1cnc2ncn(Cc3nc(CCc4ccc(Cl)cc4)no3)c(=O)c21` [AM-0902], in test [5] (preincubation, 1μM), the “block of AITC-evoked Ca2+ elevation” value is listed as “blocked” and the “block of ±PZQ-evoked Ca2+ responses” value is “blocked”.

For `Cc1cccc(COc2ccccc2C(=O)N(CCCN)Cc2cccs2)c1` [AMTB], in test [6] (AMTB 10μM added 30min before agonists), the “block of Ca2+ transients evoked by (S)-PZQ or menthol” value is reported as “blocked”.

As to `COc1ccc(NC(=O)[C@@H]2C[C@H](C)CC[C@H]2C(C)C)cc1` [WS-12], the “relaxation of KPSS-contracted vessel strips by TRPM8 agonists” value (shortened to “relaxation”) in test [1] was “completely relaxed”. Moreover, in [8], the “vasorelaxant effect in TRPM8 KO background” value (from here on “vasorelaxant effect”) is “persisted”.

`COc1cc(CNC(=O)CCCC/C=C/C(C)C)ccc1O` [capsaicin]: the “Ca2+ response in untransfected HEK293 cells” value in test [7] is recorded as “neither the addition of the TRPV1 agonist capsaicin (1μM) nor addition of ±PZQ evoked a Ca^2+ response”. Also, the “Ca2+ signal in TRPV1 expressing cells” value in test [9] (capsaicin 1μM, ±PZQ 100μM) is on record as “evoked Ca^2+ signals”.

Take `Oc1cc2c(cc1O)CN(C(=S)NCCc1ccc(Cl)cc1)CCC2` [capsazepine]: the “block of capsaicin-evoked Ca2+ signals” value in test [9] (capsazepine 10μM) is “blocked”.

Regarding `O=C1NC(c2cccc([N+](=O)[O-])c2)=CCN1c1ccccc1O` [icilin], the “relaxation” value in test [1] is “completely relaxed”. Besides, in test [8], the “vasorelaxant effect” value is “persisted”.

`CC1CCC(C(C)C)C(O)C1` (stereo not drawn) [menthol]: in [1], the “relaxation” value is on record as “completely relaxed”. The “vasorelaxant effect” value in test [8] is listed as “persisted”. Moreover, the “Ca2+ response in untransfected HEK293 cells” value in test [7] was “neither ±PZQ or menthol elevated cytoplasmic Ca^2+ levels”. For the same molecule, the “menthol-evoked Ca2+ signals in Ca2+-free media” value in [6] (300μM, Ca2+-free media) was “not observed”. In addition, the “cytoplasmic Ca2+ signal in TRPM8 expressing cells” value in test [6] is reported as “rapidly elevated cytoplasmic Ca^2+”.
